The values that follow come from publication PMC9585939, “Unveiling a family of spiro-β-lactams with anti-HIV and antiplasmodial activity via phosphine-catalyzed [3+2] annulation of 6-alkylidene-penicillanates and allenoates” (Frontiers in Chemistry, 2022).

Like-named read-outs stand apart in the source and are kept apart here. Bounds are passed on as bounds.

Data set [1] has as its system P. falciparum strain NF54. Further details: method as in Bártolo et al., 2021; Alves et al., 2021c. The conditions noted are these: erythrocytic infection; ref Bártolo et al., 2021; Alves et al., 2021c; cited from earlier work.
For a further data set, the system named is TZM-bl cells. Further details: method as in Bártolo et al., 2021. The following applies: lead molecule, ref Bártolo et al., 2021; cited from earlier work.
For data set [2], the system named is HIV-2 03PTHCC19. The arrangement: method as in Bártolo et al., 2021. The following applies: ref Bártolo et al., 2021, cited from earlier work.
Data set [3] relates to HIV-1 SG3.1. The following applies: ref Bártolo et al., 2021, cited from earlier work.
Data set [4] concerns P. berghei hepatic stage. Further details: method as in Bártolo et al., 2021; Alves et al., 2021c. The following applies: hepatic infection; ref Bártolo et al., 2021; Alves et al., 2021c; cited from earlier work.
For a further data set, the system named is HIV protease. Further details: method as in Bártolo et al., 2021. The following applies: ref Bártolo et al., 2021; cited from earlier work.
Data set [5] has as its system P. berghei hepatic stage. Put plainly: In vitro hepatic infection of Huh7 cells by luciferase-expressing P. berghei. In kind it is cell-based. The conditions noted are these: Plasmodium berghei; for inhibition at 1 µM: Huh-7, read-out: percentage of inhibition of hepatic infection; for IC50: Huh-7, hepatic stage, Huh7 cells, 48 h after infection. Here is the method:
The inhibitory activity of test compounds on in vitro hepatic infection by P. berghei was determined by comparing the parasite load in compound- and solvent-treated P. berghei-infected Huh7 cells. Infection load was assessed by measurement of luminescence intensity in Huh7 cells infected, with a firefly luciferase-expressing P. berghei line, as previously described ([Ploemen et al., 2009]; [António et al., 2017]). Briefly, Huh7 cells were seeded in 96-well plates (1.0 × 10^4 cells per well) the day before drug treatment and infection. The medium was replaced by another medium containing the appropriate concentration of each compound approximately 1 h prior to infection with sporozoites freshly obtained through disruption of salivary glands of infected female Anopheles stephensi mosquitoes. Sporozoite addition was followed by centrifugation at 1,800 g for 5 min. Parasite infection load was measured 48 h after infection by a bioluminescence assay (Biotium). Cell confluence, a surrogate measure of compound toxicity to Huh7 cells, was assessed by fluorescence measurements using the alamarBlue assay, according to the manufacturer’s instructions. […] Specifically, non-linear regression analysis was employed to fit the normalized results of the dose-response curves, and IC50 values were determined using GraphPad Prism 8.0 (GraphPad Software, La Jolla, California, United States).

Data set [6] relates to HIV-2 03PTHCC19. Put plainly: microbe, parasite or virus in culture. The following applies: Human immunodeficiency virus 2, TZM-bl; for IC50 / IC90: 48 h; for IC50: read-out: IC50 HIV-2; for IC90: read-out: IC90 HIV-2; for inhibition at 25 µg/mL: read-out: MPI (%) 25 μg/mL.
Data set [7] concerns HIV-1 SG3.1. Put plainly: microbe, parasite or virus in culture. The following applies: for IC50 / IC90: 48 h; for IC90: read-out: IC90 HIV-1; for inhibition at 25 µg/mL: read-out: MPI (%) 25 μg/mL.
Data set [8] is described as follows: Cellular viability assay (alamarBlue) in TZM-bl cells. In kind it is cell-based. The following applies: human, 50% cytotoxic concentration. A general note: Alamar Blue is a resazurin reagent that responds to reducing activity.
The test system of data set [9] is P. falciparum strain NF54. In words: Blood stage antiplasmodial activity, SYBR green I flow cytometry. Format: cell-based. The following applies: Plasmodium falciparum, NF54, 48 h. The procedure:
Ring-stage synchronized cultures of P. falciparum strain NF54 at 2.5% hematocrit and at approximately 1% parasitemia were incubated with test compounds or dimethyl sulfoxide (DMSO, vehicle control) in 96-well plates for 48 h at 37°C in a 5% CO2 and 5% O2 atmosphere. Stock solutions of chloroquine (positive control) and compounds 9i, 12a, and 14a were prepared in DMSO. Working solutions were prepared from the stock solutions in complete malaria culture medium (CMCM), which consists of RPMI 1640 supplemented with 25 mM HEPES, 2.4 mM L-glutamine, 50 μg/ml gentamicin, 0.5% w/v Albumax, 11 mM glucose, 1.47 mM hypoxanthine, and 37.3 mM NaHCO3. For each measurement, 5 μl of the culture (approximately 800,000 cells) were stained with the DNA-specific dye SYBR green I. After 20 min of incubation in the dark, the stained sample was analyzed by flow cytometry. Approximately 100,000 events were analyzed in each flow cytometry measurement. Two independent experiments were performed, and all samples were analyzed in triplicate.
On the technique in general: Flow cytometry measures light scatter and fluorescence of single cells or particles in a stream.

The mark [10] stands for this setting: Human immunodeficiency virus 1, TZM-bl, read-out: IC50 HIV-1, TZM-bl cells, 48 h.
Where [11] appears, read: Human immunodeficiency virus 1, TZM-bl.

A word on the IC50: it is the concentration that gives 50% inhibition. Broadly, the CC50 is the concentration that lowers cell viability or growth by half. As a reminder, the IC90 is the point of the concentration-response curve where the effect stands at 90%. Consider `CC1(C)SC2N(C(=O)C23CC=C(C(=O)OCc2ccccc2)C3C(=O)c2ccccc2)C1C(=O)OC(c1ccccc1)c1ccccc1` (centres unmarked) [BSS-730A], for which the IC50 is 430 ± 40 nM in data set [1]; 8 nM in the data set with HIV-2 03PTHCC19 [2]; 14 nM in the data set on HIV-1 SG3.1 [3] (Alves et al., 2021c); 550 ± 140 nM in the data set on P. berghei hepatic stage [4]. Moreover, in the data set on TZM-bl cells, the 50% cytotoxic concentration (CC50) was 76800 nM. Moreover, the “MPI (%) 25 μg/mL” value in the data set on HIV-2 03PTHCC19 [2] (HIV-2, 25 μg/mL, lead molecule) is recorded as 99%; in the data set with HIV-1 SG3.1 [3] (HIV-1, 25 μg/mL, lead molecule), 99%. Also, the “Therapeutic index (CC50/IC50)” value in the data set with HIV-2 03PTHCC19 [2] (HIV-2, lead molecule) is recorded as 9605.00; with HIV-1 SG3.1 [3] (HIV-1, lead molecule), 5488.57. The IC90 is 64 nM in the data set with HIV-2 03PTHCC19 [2] (lead molecule) and 25 nM in the data set with HIV-1 SG3.1 [3] (lead molecule). The “HIV antiprotease activity (in words)” value in the data set with HIV protease is “no HIV antiprotease activity”.

For orientation: melting point means the temperature, or range, at which the solid turns liquid. `CC1(C)SC2N(C(=O)C23CC=C(C(=O)OCc2ccccc2)C3C(=O)c2ccc(F)cc2)C1C(=O)OC(c1ccccc1)c1ccccc1` (stereo not drawn) [Compound 12a, (1′R,2′R)-benzhydryl spiro[(2-(4-fluorobenzoyl)-3-benzyloxycarbonylcyclopent-3-ene)-1′,6-penicillanate]] had a melting point of 64.5 to 66.5 °C. For the same molecule, in the data set with P. berghei hepatic stage [5], the inhibition at 1 µM is under 50% and the 50% inhibitory concentration (IC50) came to 924 ± 27 nM. In addition, in the data set on HIV-2 03PTHCC19 [6], the IC50 was 11 nM, the IC90 was 55 nM and the inhibition at 25 µg/mL is 100%. Further, the 50% inhibitory concentration (IC50) in the data set with HIV-1 SG3.1 [7] (setting [10]) was found to be 19 nM. Moreover, in the data set with HIV-1 SG3.1 [7] (setting [11]), the IC90 stood at 54 nM and the inhibition at 25 µg/mL worked out at 93%. Further, in data set [8], the midpoint of cytotoxicity, the CC50, lay at 58100 nM. The same molecule came in with an IC50 in data set [9] of 560 ± 126 nM.

Take `COc1ccc(COC(=O)C2=CCC3(C(=O)N4C(C(=O)OC(c5ccccc5)c5ccccc5)C(C)(C)SC43)C2C(=O)c2ccc(F)cc2)cc1` (stereo not drawn) [Compound 14a, (1′R,2′R)-benzhydryl spiro[(2-(4-fluorobenzoyl)-3-(4-methoxybenzyloxycarbonyl)cyclopent-3-ene)-1′,6-penicillanate]]: the melting point is 72.9 to 74.9 °C. In the data set with P. berghei hepatic stage [5], the inhibition at 1 µM is under 50% and the half-maximal inhibitory concentration (IC50) came to 750 ± 107 nM. In addition, in the data set with HIV-2 03PTHCC19 [6], the half-inhibitory concentration (IC50) is 13 nM, the 90% effect concentration (IC90) turned out to be 51 nM and the inhibition at 25 µg/mL was 100%. Besides, the IC50 in the data set on HIV-1 SG3.1 [7] (setting [10]) is under 20 nM. In the data set on HIV-1 SG3.1 [7] (setting [11]), the IC90 turned out to be 48 nM and the inhibition at 25 µg/mL was 100%. In the data set on HIV-1 SG3.1 [7] (read-out: IC50 HIV-1, TZM-bl cells), the concentration for half-maximal inhibition (IC50) was 12 nM. The same molecule registered a CC50 in data set [8] of 75100 nM. For the same molecule, the half-inhibitory concentration (IC50) in [9] came to 292 ± 62 nM.
